# How the values were obtained:
# Tetrahymena = conditions: cited from earlier work
# [1] = system: cytoplasmic microtubules of wild-type Tetrahymena cells; assay: Stability of cell body microtubules against microtubule-destabilizing compounds, wild-type cells; type: cell-based, Tetrahymena thermophila; conditions: nocodazole 40 μM, oryzalin 10 μM, 30 min
# Experimental: (§1) Immunofluorescence and electron microscopy. GFP-Ttll6Ap-expressing cells were grown in SPP with 0.5 to 2.5 μg of CdCl2/ml for 2 to 4 h. For GFP-Ttll6Ap localization, a 10-μl drop of cells was placed on a coverslip, followed by the addition of 20 μl of 2% paraformaldehyde in PHEM buffer (Schliwa and van Blerkom. 1981. J. Cell Biol. 90:222-235) and, after 20 s, the addition of 10 μl of 0.5% Triton X-100 in PHEM. The cells were subjected to immunofluorescence (Janke et al., 2005. Science 308:1758-1762) with the following primary antibodies: 12G10, an anti-α-tubulin monoclonal antibody (MAb) (Jerka-Dziadosz et al., 1995. Dev. Biol. 169:644-661) at 1:50; MAb ID5 (40), which in Tetrahymena is specific to polyglutamylated tubulin (Wloga et al., 2008. Eukaryot. Cell 7:1362-1372), at 1:50; poly(E) antipolyglutamic acid antibodies (1:100) (Shang et al., 2002. J. Cell Biol. 158:1195-1206); TAP952, an anti-monoglycylated tubulin MAb (1:5,000) (Bré et al., 1998. Mol. Biol. Cell 9:2655-2665; Callen et al., 1994. Biol. Cell 81:95-119); and 6-11 B-1, an anti-acetyl-K40 α-tubulin MAb (1:200) (LeDizet and Piperno. 1991.
# [2] = system: cell body microtubules of GFP-Ttll6Ap-overexpressing Tetrahymena cells; assay: Stability of cell body microtubules against microtubule-destabilizing compounds, GFP-Ttll6Ap-overexpressing cells; type: cell-based, Tetrahymena thermophila; conditions: nocodazole 40 μM, oryzalin 10 μM, 30 min
# Experimental: as §1
# zebrafish embryos [3] = assay: Heart position in zebrafish embryos, scoring live embryos; type: in vivo
# Text: (§2) MO Knockdowns in Zebrafish Embryos. TTLL3-ATG MO (5′ […] 3′; SEQ ID NO:129) and TTLL3-SP MO (5′ […] 3; SEQ ID NO:130) were obtained from Open Biosystems (Huntsville, AL). TTLL3-ATG targets the translation initiation site of ttll3 mRNA. TTLL3-SP is predicted to prevent splicing of exon 11 and cause a frame shift in exon 12. This would eliminate the coding sequence downstream of exon 10, which includes a conserved catalytic domain-encoding region. To evaluate the effect of TTLL3-SP on ttll3 mRNA, total RNA was isolated with TRIzol reagent (Invitrogen, Inc., Carlsbad, Calif.) from embryos at 7 hpf: 50 uninjected control embryos, 40 embryos injected with 3 ng TTLL3-SP MO, or 30 embryos injected with 5 ng TTLL3-SP MO. Total RNA ([…]) was used as a template for cDNA synthesis with random hexamers and oligo-dT primers and the iScript TM cDNA synthesis kit (Bio-Rad Laboratories, Hercules, Calif.). cDNA ([…]) was amplified with the following primers spanning exon 11: TTLL3-splice F, 5′-[…]-3′ (exon 10; SEQ ID NO:131); TTLL3-splice R, 5′-[…]-3′ (exon 12; SEQ ID NO:132). As expected, primers flanking exon 11 produced a shorter product in RT-PCR from embryos injected with TTLL3-SP than in controls (FIG. 50D). […] As a negative control, we injected 25 base MOs with a random base mixture at each position (Gene Tools, Inc., Philomath, Oreg.).
# zebrafish embryos [4] = assay: Expression pattern of southpaw in zebrafish embryos (in situ hybridization); type: in vivo
# Text: as §2
# (§3) Microscopy of Zebrafish. For whole-mount, in situ hybridization, embryos were fixed as previously described (Hagos and Dougan, 2007), stored in 100% methanol at −20° C., and stained with spaw, lefty1, lefty2, and cmlc2 probes (Yelon, 2001). Embryos were photographed under differential interference contrast with a Zeiss Axioplan 2 microscope with Slidebook (Intelligent Imaging Innovations, Denver, Colo.). For immunofluorescence, the embryos were manually dechorionated and fixed with 0.5% Triton X-100 and 4% paraformaldehyde in PBT (0.1% Tween-20 in PBS) at 4° C. overnight. After washing with PBT, embryos were dehydrated in methanol/PBT series and incubated overnight in 100% methanol at −20° C. After rehydration, embryos were blocked for 1-2 hr in 2% BSA, 0.5% normal goat serum,l%DMSO, 0.5% Triton X-100 in PBS, and incubated overnight at 4° C. with one of the following antibodies: 6-11 B-1 (1:1000); TAP952 (1:2000); AXO49 (1:2000); and GT335 (1:1000); polyE (1:500). After washing 3×10 min with 0.5% Triton X-100 in PBS, embryos were incubated overnight at 4° C. in anti-mouse-IgG-FITC or anti-rabbit-IgG-Cy3 (1:500; Zymed), washed (3×10 min), mounted in 100 mg/ml of DABCO (Sigma-Aldrich) in PBS, and examined on a Leica TCS SP confocal microscope.
# zebrafish embryos [5] = assay: Morphology of zebrafish morphant embryos; conditions: in vivo
# Text: as §2
# zebrafish embryos [6] = assay: Tubulin monoglycylation in cilia of zebrafish embryos (TAP952 immunofluorescence); type: in vivo
# Text: as §2, §3
# zebrafish embryos [7] = assay: Expression pattern of lefty2 in zebrafish embryos (in situ hybridization); type: in vivo
# Text: as §2, §3
# zebrafish embryos [8] = assay: Heart position in zebrafish embryos, in situ hybridization; type: in vivo
# Text: as §2, §3
# 3AB-KO Tetrahymena cells = assay: Axoneme elongation by paclitaxel in 3AB-KO cells (immunofluorescence); type: cell-based, Tetrahymena thermophila; conditions: 25 μM paclitaxel for 4 hr
# Experimental: Cultures. Tetrahymena thermophila cells were grown in SPP medium. To determine the growth rate, cells were diluted to 10^4 cells/ml and grown in 10 ml of SPP in 150 ml flasks. In some experiments, paclitaxel (LC Laboratories, Woburn, Mass.) was added to the SPP medium. WT in Kalkutta and Tupfel longfin (commonly known as “WIK” and “TL”, respectively) zebrafish were raised at 28° C. at 14 hr light/10 hr dark cycle. The embryos were cultured in egg water at 28° C.
# Immunofluorescence and Electron Microscopy of Tetrahymena. Immuno-fluorescence was done as previously described (Wloga et al., 2006. Mol. Biol. Cell 17, 2799-2810) and quantified using mixed mutant and WT cells (fed with India ink) imaged side by side. The average pixel intensity was determined for sections of axonemes from the base to below the tip using ImageJ. TEM was performed as previously described (Jerka-Dziadosz et al., 2001. Protist 152, 53-67). For immunoelectron TEM, cells were fixed as for immunofluorescence, reacted with anti-GFP antibodies (1:1000; Abcam) in 3% bovine serum albumin (BSA) in the PHEM buffer with 0.1% Tween-20 for 2 hr, followed by anti-rabbit IgG-10 nm gold antibodies (GE Healthcare) at 1:60 in 3% BSA in PBS for 1.5 hr. […] After washing, cells were dehydrated in an ethanol series, embedded in Epon, sectioned, and analyzed in a JEM 1210 electron microscope.
# [9] = system: wild-type Tetrahymena cells; assay: Axoneme/cilium length in paclitaxel-treated wild-type cells (immunofluorescence); type: cell-based, Tetrahymena thermophila
# Experimental: as §1, with “1991. Methods Enzymol. 196:264-274). The secondary goat antibodies were as follows: anti-mouse-FITC, anti-mouse-Cy3, anti-rabbit-Cy3, and anti-rabbit-Cy5 (Zymed) at 1:200 dilutions. Cells were viewed under either Leica TCS SP or Zeiss LSM 510 VIS/META confocal microscopes. […] Confocal images were recorded with a 0.8-μm distance between z-sections, and sets of two to four z-sections were merged. The lengths of the cilia were measured by using ImageJ 1.37. […]” for “1991.”
# Immunofluorescence and Electron Microscopy of Tetrahymena. Immuno-fluorescence was done as previously described (Wloga et al., 2006. Mol. Biol. Cell 17, 2799-2810) and quantified using mixed mutant and WT cells (fed with India ink) imaged side by side. The average pixel intensity was determined for sections of axonemes from the base to below the tip using ImageJ. […] After washing, cells were dehydrated in an ethanol series, embedded in Epon, sectioned, and analyzed in a JEM 1210 electron microscope.
# [10] = system: GFP-Ttll6Ap-overproducing Tetrahymena cells; assay: Cilium length in paclitaxel-treated GFP-Ttll6Ap-overproducing cells (immunofluorescence); type: cell-based, Tetrahymena thermophila; conditions: 40 μM paclitaxel for 3 h
# Experimental: as §1, with “1991. Methods Enzymol. 196:264-274). The secondary goat antibodies were as follows: anti-mouse-FITC, anti-mouse-Cy3, anti-rabbit-Cy3, and anti-rabbit-Cy5 (Zymed) at 1:200 dilutions. Cells were viewed under either Leica TCS SP or Zeiss LSM 510 VIS/META confocal microscopes. To measure the length of the cilia, the cells were labeled with MAb 12G10, [and, in some experiments, double labeled with poly(E) antibodies]. Confocal images were recorded with a 0.8-μm distance between z-sections, and sets of two to four z-sections were merged. The lengths of the cilia were measured by using ImageJ 1.37. For transmission electron microscopy (TEM), the cells were prepared as described previously (Jerka-Dziadosz et al., 2001. Protist 152:53-67).” for “1991.”
# [11] = GFP-Ttll6Ap-overexpressing cells
compound,measurement,setting,value
C[S+](C)[O-] [DMSO],concentration tolerated well,Tetrahymena,up to 2.5%
COC(=O)Nc1nc2ccc(C(=O)c3cccs3)cc2[nH]1 [nocodazole],effect on cytoplasmic microtubules,[1],rapid depolymerization of cytoplasmic microtubules
same,effect on cell body microtubules,[2],retained abundant cell body microtubules
TTLL3-ATG-MO: antisense morpholino 5′ GTGTTGGTGCATGTTTGAGTTAACC 3′; targets the translation initiation site of ttll3 mRNA (all phosphorodiamidate morpholino (PMO)),"heart position left, number of embryos",zebrafish embryos [3],56
same,"heart position left, percent of embryos",zebrafish embryos [3],50%
same,"heart position middle, number of embryos",zebrafish embryos [3],33
same,"heart position middle, percent of embryos",zebrafish embryos [3],29.5%
same,"heart position right, number of embryos",zebrafish embryos [3],23
same,"heart position right, percent of embryos",zebrafish embryos [3],(20.5%)
same,"southpaw expression: Bilatera or midline, number of embryos",zebrafish embryos [4],34
same,"southpaw expression: Bilatera or midline, percent of embryos",zebrafish embryos [4],(43.7%)
same,"southpaw expression: No specific signal, number of embryos",zebrafish embryos [4],19
same,"southpaw expression: No specific signal, percent of embryos",zebrafish embryos [4],(24.3%)
same,"southpaw expression: left, number of embryos",zebrafish embryos [4],14
same,"southpaw expression: left, percent of embryos",zebrafish embryos [4],(17.9%)
same,"southpaw expression: right, number of embryos",zebrafish embryos [4],11
same,"southpaw expression: right, percent of embryos",zebrafish embryos [4],(14.1%)
same,hydrocephalic morphants,zebrafish embryos [5],10%
same,morphant embryos with curly tail,zebrafish embryos [5],76%
same,levels of tubulin monoglycylation/glycylation in cilia,"zebrafish embryos [6]; 72 hpf, TTLL3-ATG MO 1 ng, TTLL3-SP MO 3 ng",greatly reduced
same,morphants with TAP952 signal not detected in cilia of the distal part of pronephric duct,zebrafish embryos [6]; n=46,98%
same,morphants with TAP952 signal not detected in cilia of the medial part of pronephric duct,zebrafish embryos [6]; n=46,61%
same,morphants with TAP952 signal not detected in cilia of the spinal cord,zebrafish embryos [6]; n=46,89%
same,"lefty2 expression: Bilatera or midline, number of embryos",zebrafish embryos [7],5
same,"lefty2 expression: Bilatera or midline, percent of embryos",zebrafish embryos [7],(11.9%)
same,"lefty2 expression: No specific signal, number of embryos",zebrafish embryos [7],8
same,"lefty2 expression: No specific signal, percent of embryos",zebrafish embryos [7],(19%)
same,"lefty2 expression: left, number of embryos",zebrafish embryos [7],15
same,"lefty2 expression: left, percent of embryos",zebrafish embryos [7],(35.7%)
same,"lefty2 expression: right, number of embryos",zebrafish embryos [7],14
same,"lefty2 expression: right, percent of embryos",zebrafish embryos [7],(33.4%)
same,"heart position left, number of embryos",zebrafish embryos [8],21
same,"heart position left, percent of embryos",zebrafish embryos [8],50%
same,"heart position middle, number of embryos",zebrafish embryos [8],7
same,"heart position middle, percent of embryos",zebrafish embryos [8],16.7%
same,"heart position right, number of embryos",zebrafish embryos [8],14
same,"heart position right, percent of embryos",zebrafish embryos [8],(33.3%)
CC(=O)O[C@H]1C(=O)[C@@]2(C)[C@H]([C@H](OC(=O)c3ccccc3)[C@]3(O)C[C@H](OC(=O)[C@H](O)[C@@H](NC(=O)c4ccccc4)c4ccccc4)C(C)=C1C3(C)C)[C@]1(OC(C)=O)CO[C@@H]1C[C@@H]2O [paclitaxel],elongation of axonemes,3AB-KO Tetrahymena cells,not observed
same,effect on axonemes,[9]; 25 μM paclitaxel for 4 hr,remarkable elongation of axonemes
same,increase of the average axoneme length,[9]; 40 μM paclitaxel for 3 h,20%
same,axoneme length after treatment,"[9]; 40 μM paclitaxel for 3 h, n=173",6.05±1.12 μm
same,elongation of preexisting cilia,[10]; [11],22%
same,"length of preexisting cilia, paclitaxel treated",[10]; [11],6.39±0.82 μm
same,"length of assembling cilia, paclitaxel treated",[10]; GFP-Ttll6Ap-overproducing cells,2.7±0.6 μm
same,change of length of assembling cilia,"[10]; GFP-Ttll6Ap-overproducing cells, vs no drug",44%
